From US9249102B2 (priority 2012, dated 2016)
Like-named read-outs stand apart in the source and are kept apart here.

Key:
[1] = system: microfilaria of Dirofilaria immitis; experiment: Method F: microfilaria of Dirofilaria immitis, survival at 24 hours
Haemonchus contortus = experiment: Method A: Haemonchus contortus L1 larvae, microtitre plate screen; settings: 96 h, read-out: motility inhibition
[2] = Method G: permeability in the Caco-2/TC7 in vitro model; settings: human, Caco-2, pH 6.5
Cooperia oncophora = experiment: Method C: Cooperia oncophora L1 larvae in vitro; settings: 96 h, read-out: inhibition of motility
[3] = survival of microfilaria at 24 hours

| SMILES | EC50 [1] | inhibition at 5 µg/mL (Haemonchus contortus) | Papp A→B at 20 μM [2] | EC50 [1, 3] | inhibition at 5 µg/mL (Cooperia oncophora) |
| --- | --- | --- | --- | --- | --- |
| N#Cc1ccc(N[C@H]2CC[C@H](OCC(=O)N3CCN(Cc4nc5cc(Cl)ccc5s4)CC3)CC2)cc1C(F)(F)F [Compound 292, 4-[[4-[2-[4-[(5-chloro-1,3-benzothiazol-2-yl)methyl]piperazin-1-yl]-2-oxo-ethoxy]cyclohexyl]amino]-2-(trifluoromethyl)benzonitrile] | < 1 µg/mL | ≥ 90% | 8.3 ×10⁻⁶ cm/s | – | – |
| CN(c1ccc([N+](=O)[O-])c(C(F)(F)F)c1)[C@H]1CC[C@H](OCC(=O)N2CCN(Cc3cc4cc(C(F)(F)F)ccc4o3)CC2)CC1 [Compound 256, 2-[[4-[methyl[4-nitro-3-(trifluoromethyl)phenyl]amino]cyclohexyl]oxy]-1-(4-[[5-(trifluorom-ethyl)-1-benzofuran-2-yl]methyl]piperazin-1-yl)ethan-1-one] | – | ≥ 90% | 5.4 ×10⁻⁶ cm/s | < 1 µg/mL | – |
| N#Cc1ccc(N[C@H]2CC[C@H](OCC(=O)N3CCN(Cc4nc5cc(F)ccc5s4)CC3)CC2)cc1C(F)(F)F [Compound 294, 4-[[4-[2-[4-[(5-fluoro-1,3-benzothiazol-2-yl)methyl]piperazin-1-yl]-2-oxo-ethoxy]cyclohexyl]amino]-2-(trifluoromethyl)benzonitrile] | < 5 µg/mL | ≥ 90% | 8.2 ×10⁻⁶ cm/s | – | – |
| O=C(NCCO[C@H]1CC[C@H](Nc2ccc([N+](=O)[O-])c(C(F)(F)F)c2)CC1)C(=O)NCc1cc2cc(F)ccc2o1 [Compound 221, N^1-((5-fluorobenzofuran-2-yl)methyl)-N^2-(2-(4-(4-nitro-3-(trifluoromethyl)phenylamino)cyclohexyloxy)ethyl)oxalamide] | – | – | 7.5 ×10⁻⁶ cm/s | < 1 µg/mL | – |
| O=C(NCCO[C@H]1CC[C@H](Nc2ccc([N+](=O)[O-])c(C(F)(F)F)c2)CC1)C(=O)NCc1cc2cc(Cl)ccc2o1 [Compound 222] | – | ≥ 90% | 5 ×10⁻⁶ cm/s | < 0.1 µg/mL | – |
| N#Cc1ccc(N[C@H]2CC[C@H](OCC(=O)N3CCN(Cc4cc5cc(Cl)ccc5o4)CC3)CC2)cc1C(F)(F)F [Compound 274, 2-[(4-[[4-cyano-3-(trifluoromethyl)phenyl]amino]cyclohexyl)-oxy]1-[4-(5-chlorobenzofuran-2-ylmethyl)piperazin-1-yl]ethan-1-one] | < 1 µg/mL | ≥ 90% | 9.2 ×10⁻⁶ cm/s | – | – |
| O=C(COc1ccc(Nc2ccc([N+](=O)[O-])c(C(F)(F)F)c2)cc1)N1CCN(CC2Cc3cc(C(F)(F)F)ccc3O2)CC1 (centres unmarked) [Compound 187, 2-(4-[[4-nitro-3-(trifluoromethyl)phenyl]amino]phenoxy)-1-(4-[[5-(trifluoromethyl)-2,3-dihydro-1-benzofuran-2-yl]methyl]piperazin-1-yl)ethan-1-one] | – | ≥ 90% | 5.5 ×10⁻⁶ cm/s | < 1 µg/mL | – |
| O=C(CO[C@H]1CC[C@H](Nc2ccc([N+](=O)[O-])c(C(F)(F)F)c2)CC1)N1CCN(Cc2ccc3ccc(C(F)(F)F)cc3n2)CC1 [Compound 328, 2-[4-(4-nitro-3-trifluoromethyl-phenylamino)-cyclohexyloxy]-1-[4-(7-trifluoromethyl-quinolin-2-ylmethyl)-piperazin-1-yl]-ethanone] | – | ≥ 90% | 7.2 ×10⁻⁶ cm/s | – | ≥ 90% |
| N#Cc1ccc(N[C@H]2CC[C@H](OCC(=O)N3CCN(Cc4ccc5cc(C(F)(F)F)ccc5n4)CC3)CC2)cc1C(F)(F)F [Compound 334, 4-(4-{2-oxo-2-[4-(6-trifluoromethyl-quinolin-2-ylmethyl)-piperazin-1-yl]-ethoxy}-cyclohexylamino)-2-trifluoromethyl-benzonitrile] | – | ≥ 90% | 11.9 ×10⁻⁶ cm/s | – | – |
| O=C(CO[C@H]1CC[C@H](Nc2ccc([N+](=O)[O-])c(C(F)(F)F)c2)CC1)N1CCN(Cc2nc3cc(Cl)ccc3o2)CC1 [Compound 287, 2-[(4-[[4-nitro-3-(trifluoromethyl)phenyl]amino]cyclohexyl)-oxy]1-[4-(5-chlorobenzoxazol-2-ylmethyl)piperazin-1-yl]ethan-1-one] | – | ≥ 90% | 11 ×10⁻⁶ cm/s | < 5 µg/mL | – |
| O=C(CO[C@H]1CC[C@H](Nc2ccc([N+](=O)[O-])c(C(F)(F)F)c2)CC1)N1CCN(Cc2nc3cc(F)ccc3o2)CC1 [Compound 285, 2-[(4-[[4-nitro-3-(trifluoromethyl)phenyl]amino]cyclohexyl)-oxy]1-[4-(5-fluorobenzoxazol-2-ylmethyl)piperazin-1-yl]ethan-1-one] | – | ≥ 90% | 12 ×10⁻⁶ cm/s | – | – |
| O=C(CO[C@H]1CC[C@H](Nc2ccc([N+](=O)[O-])c(C(F)(F)F)c2)CC1)N1CCN(CC2Cc3ccccc3O2)CC1 (some centres unmarked) [Compound 24, 1-[4-(2,3-dihydro-1-benzofuran-2-ylmethyl)piperazin-1-yl]-2-[(4-[[4-nitro-3-(trifluoromethyl)phenyl]amino]cyclohexyl)oxy]ethan-1-one] | – | ≥ 90% | 9.7 ×10⁻⁶ cm/s | < 1 µg/mL | – |
| O=C(CO[C@H]1CC[C@H](Nc2ccc([N+](=O)[O-])c(C(F)(F)F)c2)CC1)N1CCN(Cc2cc3c(F)c(F)ccc3o2)CC1 [Compound 320, 2-[(4-[[4-nitro-3-(trifluoromethyl)phenyl]amino]cyclohexyl)-oxy]1-[4-(4,5-difluorobenzofuran-2-ylmethyl)piperazin-1-yl]ethan-1-one] | – | ≥ 90% | 6.8 ×10⁻⁶ cm/s | – | ≥ 90% |
| N#Cc1ccc(N[C@H]2CC[C@H](OCC(=O)N3CCN(Cc4cc5cc(C(F)(F)F)ccc5o4)CC3)CC2)cc1C(F)(F)F [Compound 306, 4-(4-{2-oxo-2-[4-(5-trifluoromethyl-benzofuran-2-ylmethyl)-piperazin-1-yl]-ethoxy}-cyclohexylamino)-2-trifluoromethyl-benzonitrile] | < 0.1 µg/mL | ≥ 90% | 9 ×10⁻⁶ cm/s | – | – |
| N#Cc1ccc(N[C@H]2CC[C@H](OCC(=O)N3CCN(Cc4ccc5ccc(C(F)(F)F)cc5n4)CC3)CC2)cc1C(F)(F)F [Compound 333, 4-(4-{2-oxo-2-[4-(7-trifluoromethyl-quinolin-2-ylmethyl)-piperazin-1-yl]-ethoxy}-cyclohexylamino)-2-trifluoromethyl-benzonitrile] | – | ≥ 90% | 8.1 ×10⁻⁶ cm/s | – | – |
| O=C(CO[C@H]1CC[C@H](Nc2ccc([N+](=O)[O-])c(C(F)(F)F)c2)CC1)N1CCN(Cc2nc3cc(Cl)ccc3s2)CC1 [Compound 291, 1-[4-[(5-chloro-1,3-benzothiazol-2-yl)methyl]piperazin-1-yl]-2-[4-[4-nitro-3-(trifluoromethyl)anilino]cyclohexoxy]ethanone] | – | ≥ 90% | 6.2 ×10⁻⁶ cm/s | – | ≥ 90% |
| N#Cc1ccc(N[C@H]2CC[C@H](OCC(=O)N3CCN(CC4Cc5cc(C(F)(F)F)ccc5O4)CC3)CC2)cc1C(F)(F)F (some centres unmarked) [Compound 84, 4-([4-[2-oxo-2-(4-[[5-(trifluoromethyl)-2,3-dihydro-1-benzofuran-2-yl]methyl]piperazin-1-yl)ethoxy]cyclohexyl]amino)-2-(trifluoromethyl)benzonitrile] | < 5 µg/mL | ≥ 90% | 5.3 ×10⁻⁶ cm/s | – | – |
